Reference: paper PMC4286029 (Inflammation Research, 2014)

Columns and labels:
[1] = target: T1, JNK1α1 (Homo sapiens, UniProt P45983); experiment: KinaseProfiler selectivity: JNK1α1; type: biochemical
T1 construct: purchased Millipore Co. Ltd. (KinaseProfiler service)
Method: (§1) […]; The selectivity of JTE-052 for other kinases was assessed using KinaseProfiler™ (Millipore Co. Ltd.). […].

[2] = target: T2, Plk1 (Homo sapiens, UniProt P53350); experiment: KinaseProfiler selectivity: Plk1; type: biochemical
T2 construct: purchased Millipore Co. Ltd. (KinaseProfiler service)
T2 sequence (P53350 whole entry, species assumed): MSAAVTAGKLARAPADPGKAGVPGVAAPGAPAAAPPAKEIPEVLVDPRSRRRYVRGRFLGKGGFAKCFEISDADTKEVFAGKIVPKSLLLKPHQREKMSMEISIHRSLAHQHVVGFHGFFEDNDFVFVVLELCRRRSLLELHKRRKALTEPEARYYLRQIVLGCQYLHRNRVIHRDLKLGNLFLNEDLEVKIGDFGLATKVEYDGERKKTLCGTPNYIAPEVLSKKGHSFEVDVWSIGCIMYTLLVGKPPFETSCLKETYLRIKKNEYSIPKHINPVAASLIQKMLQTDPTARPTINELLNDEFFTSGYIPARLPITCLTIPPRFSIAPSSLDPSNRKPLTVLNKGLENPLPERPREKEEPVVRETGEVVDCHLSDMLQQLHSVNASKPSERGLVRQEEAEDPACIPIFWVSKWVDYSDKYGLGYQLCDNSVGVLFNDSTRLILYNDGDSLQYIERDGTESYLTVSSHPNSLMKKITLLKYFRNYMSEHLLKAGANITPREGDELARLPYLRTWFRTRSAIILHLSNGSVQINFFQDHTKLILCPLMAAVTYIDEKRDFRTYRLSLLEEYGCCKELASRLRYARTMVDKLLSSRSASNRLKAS
Method: as §1

[3] = target: T3, Lck (Homo sapiens, UniProt P06239); experiment: KinaseProfiler selectivity: Lck; type: biochemical
T3 construct: purchased Millipore Co. Ltd. (KinaseProfiler service)
Method: as §1

[4] = target: T4, IR (Homo sapiens, UniProt P06213); experiment: KinaseProfiler selectivity: IR; type: biochemical
T4 construct: purchased Millipore Co. Ltd. (KinaseProfiler service)
T4 sequence (P06213 28-1382): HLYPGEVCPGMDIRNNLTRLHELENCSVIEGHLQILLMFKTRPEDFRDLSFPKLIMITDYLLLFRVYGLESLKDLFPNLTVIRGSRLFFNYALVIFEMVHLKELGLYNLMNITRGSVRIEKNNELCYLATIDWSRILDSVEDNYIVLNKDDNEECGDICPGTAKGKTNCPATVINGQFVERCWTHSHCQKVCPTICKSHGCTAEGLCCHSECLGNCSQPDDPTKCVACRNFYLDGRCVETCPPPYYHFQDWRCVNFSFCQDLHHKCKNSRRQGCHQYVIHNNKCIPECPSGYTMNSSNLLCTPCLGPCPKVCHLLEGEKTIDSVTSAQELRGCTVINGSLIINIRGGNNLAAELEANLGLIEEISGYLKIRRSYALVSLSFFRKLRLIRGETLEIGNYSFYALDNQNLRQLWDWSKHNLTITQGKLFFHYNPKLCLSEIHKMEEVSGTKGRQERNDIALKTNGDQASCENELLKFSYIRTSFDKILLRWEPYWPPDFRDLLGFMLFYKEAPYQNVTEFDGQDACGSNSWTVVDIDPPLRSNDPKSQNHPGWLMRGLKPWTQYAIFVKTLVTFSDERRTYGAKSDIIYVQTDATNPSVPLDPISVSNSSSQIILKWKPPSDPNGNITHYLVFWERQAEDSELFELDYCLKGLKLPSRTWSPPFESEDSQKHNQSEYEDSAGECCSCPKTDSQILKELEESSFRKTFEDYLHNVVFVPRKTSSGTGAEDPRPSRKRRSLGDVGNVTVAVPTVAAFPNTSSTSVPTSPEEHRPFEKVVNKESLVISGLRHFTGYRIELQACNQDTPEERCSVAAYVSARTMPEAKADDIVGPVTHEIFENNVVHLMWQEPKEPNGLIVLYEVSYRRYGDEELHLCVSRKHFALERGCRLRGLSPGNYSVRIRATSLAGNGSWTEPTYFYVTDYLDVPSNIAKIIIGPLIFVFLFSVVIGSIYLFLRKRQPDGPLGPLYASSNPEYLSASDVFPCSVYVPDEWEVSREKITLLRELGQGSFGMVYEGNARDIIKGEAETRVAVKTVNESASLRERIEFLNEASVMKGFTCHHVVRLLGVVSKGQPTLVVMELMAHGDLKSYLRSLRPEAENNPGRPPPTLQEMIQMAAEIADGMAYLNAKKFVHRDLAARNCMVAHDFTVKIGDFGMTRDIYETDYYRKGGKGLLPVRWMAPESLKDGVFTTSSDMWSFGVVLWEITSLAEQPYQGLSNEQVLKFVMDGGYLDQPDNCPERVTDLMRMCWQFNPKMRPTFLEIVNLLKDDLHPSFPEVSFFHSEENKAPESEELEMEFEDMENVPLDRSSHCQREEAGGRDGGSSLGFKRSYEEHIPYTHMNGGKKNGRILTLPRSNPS
Method: as §1

[5] = target: T5, CSK (Homo sapiens, UniProt P41240); experiment: KinaseProfiler selectivity: CSK; type: biochemical
T5 construct: purchased Millipore Co. Ltd. (KinaseProfiler service)
T5 sequence (P41240 whole entry, species assumed): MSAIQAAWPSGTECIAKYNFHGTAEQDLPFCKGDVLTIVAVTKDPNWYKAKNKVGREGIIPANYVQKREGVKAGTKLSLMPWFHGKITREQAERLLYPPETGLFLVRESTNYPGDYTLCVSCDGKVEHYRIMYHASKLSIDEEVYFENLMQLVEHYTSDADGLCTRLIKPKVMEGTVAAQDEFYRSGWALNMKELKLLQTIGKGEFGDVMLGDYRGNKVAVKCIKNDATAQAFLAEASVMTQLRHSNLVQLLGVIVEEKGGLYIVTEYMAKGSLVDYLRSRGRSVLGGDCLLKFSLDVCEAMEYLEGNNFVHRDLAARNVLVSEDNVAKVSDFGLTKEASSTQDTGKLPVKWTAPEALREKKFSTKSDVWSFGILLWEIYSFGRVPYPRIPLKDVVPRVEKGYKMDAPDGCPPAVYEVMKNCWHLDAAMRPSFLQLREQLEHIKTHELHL
Method: as §1

[6] = target: T6, Abl (Homo sapiens, UniProt P00519); experiment: KinaseProfiler selectivity: Abl; type: biochemical
T6 construct: purchased Millipore Co. Ltd. (KinaseProfiler service)
Method: as §1

[7] = target: T7, PDGFRα (Homo sapiens, UniProt P16234); experiment: KinaseProfiler selectivity: PDGFRα; type: biochemical
T7 construct: purchased Millipore Co. Ltd. (KinaseProfiler service)
Method: as §1

[8] = target: T8, GSK3β (Homo sapiens, UniProt P49841); experiment: KinaseProfiler selectivity: GSK3β; type: biochemical
T8 construct: purchased Millipore Co. Ltd. (KinaseProfiler service)
Method: as §1

[9] = target: T9, Tie2 (Homo sapiens, UniProt Q02763); experiment: KinaseProfiler selectivity: Tie2; type: biochemical
T9 construct: purchased Millipore Co. Ltd. (KinaseProfiler service)
Method: as §1

[10] = target: T10, CDK2/cyclinA (Homo sapiens, UniProt P24941); experiment: KinaseProfiler selectivity: CDK2/cyclinA; type: biochemical
T10 construct: purchased Millipore Co. Ltd. (KinaseProfiler service)
Method: as §1

[11] = target: T11, JNK2α2 (Homo sapiens, UniProt P45984); experiment: KinaseProfiler selectivity: JNK2α2; type: biochemical
T11 construct: purchased Millipore Co. Ltd. (KinaseProfiler service)
Method: as §1

[12] = test system: human mast cells; conditions: Mast cell, read-out: IC50, IL-4 priming of Fcε receptor-dependent TNF-α production in mast cells
Method: The cells were then replated at 1.2 × 10^5 cells/well and cultured with 1 μg/mL anti-IgE for an additional 5 h at 37 °C. The supernatants were collected, and secretion of TNF-α was measured by ELISA.

[13] = target: T12, cKit (Homo sapiens, UniProt P10721); experiment: KinaseProfiler selectivity: cKit; type: biochemical
T12 construct: purchased Millipore Co. Ltd. (KinaseProfiler service)
Method: as §1

[14] = target: T13, EGFR (Homo sapiens, UniProt P00533); experiment: KinaseProfiler selectivity: EGFR; type: biochemical
T13 construct: purchased Millipore Co. Ltd. (KinaseProfiler service)
Method: as §1

[15] = Cytotoxicity: fibroblast (NHLF) proliferation ([3H]thymidine); conditions: human, normal human lung fibroblasts (NHLF)
Method: For determination of cytotoxicity, fibroblast proliferation was measured.

[16] = target: T14, SAPK2a (Homo sapiens, UniProt Q16539); experiment: KinaseProfiler selectivity: SAPK2a; type: biochemical
T14 construct: purchased Millipore Co. Ltd. (KinaseProfiler service)
T14 sequence (Q16539 whole entry, species assumed): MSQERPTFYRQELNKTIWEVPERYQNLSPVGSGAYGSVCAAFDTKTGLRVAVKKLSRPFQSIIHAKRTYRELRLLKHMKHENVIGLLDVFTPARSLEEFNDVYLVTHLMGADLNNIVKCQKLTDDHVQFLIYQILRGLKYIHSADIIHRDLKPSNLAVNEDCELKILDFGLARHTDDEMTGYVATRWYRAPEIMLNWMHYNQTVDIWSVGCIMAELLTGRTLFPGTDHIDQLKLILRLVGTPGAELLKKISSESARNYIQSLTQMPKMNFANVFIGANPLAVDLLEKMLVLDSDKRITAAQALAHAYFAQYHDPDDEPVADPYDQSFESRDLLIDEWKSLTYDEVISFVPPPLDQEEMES
Method: as §1

[17] = target: T15, FGFR3 (Homo sapiens, UniProt P22607); experiment: KinaseProfiler selectivity: FGFR3; type: biochemical
T15 construct: purchased Millipore Co. Ltd. (KinaseProfiler service)
T15 sequence (P22607 23-806, species assumed): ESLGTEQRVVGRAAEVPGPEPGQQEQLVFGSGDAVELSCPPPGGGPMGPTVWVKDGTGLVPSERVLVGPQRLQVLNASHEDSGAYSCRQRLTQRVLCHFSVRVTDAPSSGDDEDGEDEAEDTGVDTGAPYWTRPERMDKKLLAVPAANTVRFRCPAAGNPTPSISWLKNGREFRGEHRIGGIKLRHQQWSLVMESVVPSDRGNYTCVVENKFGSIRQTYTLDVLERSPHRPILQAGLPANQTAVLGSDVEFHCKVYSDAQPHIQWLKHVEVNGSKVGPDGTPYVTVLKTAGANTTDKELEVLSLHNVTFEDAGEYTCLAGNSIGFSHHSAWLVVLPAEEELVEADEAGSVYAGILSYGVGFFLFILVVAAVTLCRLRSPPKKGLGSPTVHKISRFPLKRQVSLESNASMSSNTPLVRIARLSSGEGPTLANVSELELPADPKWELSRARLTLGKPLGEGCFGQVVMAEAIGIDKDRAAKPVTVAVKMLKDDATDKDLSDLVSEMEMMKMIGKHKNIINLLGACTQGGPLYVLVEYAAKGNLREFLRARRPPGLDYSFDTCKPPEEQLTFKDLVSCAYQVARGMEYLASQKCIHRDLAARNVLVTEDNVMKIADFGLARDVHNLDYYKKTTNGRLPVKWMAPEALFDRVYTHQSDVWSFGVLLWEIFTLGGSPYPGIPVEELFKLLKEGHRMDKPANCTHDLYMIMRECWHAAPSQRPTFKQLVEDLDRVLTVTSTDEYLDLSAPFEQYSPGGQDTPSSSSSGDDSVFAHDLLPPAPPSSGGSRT
Method: as §1

[18] = test system: IL-2 signaling (JAK1/JAK3), Stat5 phosphorylation in hPBMCs; experiment: cells; conditions: Homo sapiens, 0.25 h, read-out: IC50, IL-2 cytokine signaling (JAK1/JAK3)
Method: (§2) hPBMCs (3 × 10^6 cells/tube) were incubated with a test compound for 30 min at 37 °C, and then treated with IL-2 (100 ng/mL), IL-6 (100 ng/mL), IL-23 (100 ng/mL), IFN-α (100 ng/mL), or GM-CSF (1 ng/mL) for an additional 15 min. To terminate the stimulation, the cells were fixed with Fixation Buffer (BD Biosciences) for 10 min at 37 °C. The fixed cells were incubated with Perm Buffer II (BD Biosciences) for 30 min on ice and then incubated with fluorochrome-labeled anti-CD3, anti-CD4, or anti-phospho-Stat antibodies for 30 min at room temperature. The cytokine-induced Stat phosphorylation was analyzed and quantified using a Cytomics FC500 (Beckman Coulter Inc., Brea, CA). In the case of IL-23 stimulation, hPBMCs were precultured with 10 μg/mL phytohemagglutinin (PHA)-M (Sigma-Aldrich Co.) for 3 days to enhance their response to IL-23.
(§3) The phosphorylation levels of Stat5 (IL-2 and GM-CSF), Stat3 (IL-6 and IL-23), or Stat1 (IFN-α) in CD3^+CD4^+ cells (IL-2, IL-23, and IFN-α) or CD3^-CD4^+ cells (IL-6 and GM-CSF) were analyzed by flow cytometry. Data are presented as percentages of mean fluorescence intensity relative to vehicle (100 %) and non-stimulated control cells (0 %). Values are mean ± SEM. Three independent experiments were performed

[19] = test system: IL-23 signaling (JAK2/Tyk2), Stat3 phosphorylation in hPBMCs; experiment: cells; conditions: Homo sapiens, 0.25 h, read-out: IC50, IL-23 cytokine signaling (JAK2/Tyk2)
Method: as §2, §3

[20] = test system: GM-CSF signaling (JAK2/JAK2), Stat5 phosphorylation in hPBMCs; experiment: cells; conditions: Homo sapiens, 0.25 h, read-out: IC50, GM-CSF cytokine signaling (JAK2/JAK2)
Method: as §2, §3

[21] = test system: IFN-α signaling (JAK1/Tyk2), Stat1 phosphorylation in hPBMCs; experiment: cells; conditions: Homo sapiens, 0.25 h, read-out: IC50, IFN-α cytokine signaling (JAK1/Tyk2)
Method: as §2, §3

[22] = test system: IL-6 signaling (JAK1/JAK2), Stat3 phosphorylation in hPBMCs; experiment: cells; conditions: Homo sapiens, 0.25 h, read-out: IC50, IL-6 cytokine signaling (JAK1/JAK2)
Method: as §2, §3

[23] = target: T16, MSK1 (Homo sapiens, UniProt O75582); experiment: KinaseProfiler selectivity: MSK1; type: biochemical
T16 construct: purchased Millipore Co. Ltd. (KinaseProfiler service)
Method: as §1

[24] = target: T17, Flt3 (Homo sapiens, UniProt P36888); experiment: KinaseProfiler selectivity: Flt3; type: biochemical
T17 construct: purchased Millipore Co. Ltd. (KinaseProfiler service)
Method: as §1

[25] = target: T18, IKKβ (Homo sapiens, UniProt O14920); experiment: KinaseProfiler selectivity: IKKβ; type: biochemical
T18 construct: purchased Millipore Co. Ltd. (KinaseProfiler service)
Method: as §1

[26] = target: T19, PDK1 (Homo sapiens, UniProt O15530); experiment: KinaseProfiler selectivity: PDK1; type: biochemical
T19 construct: purchased Millipore Co. Ltd. (KinaseProfiler service)
Method: as §1

[27] = target: T20, ROCK-II (Homo sapiens, UniProt O75116); experiment: KinaseProfiler selectivity: ROCK-II; type: biochemical
T20 construct: purchased Millipore Co. Ltd. (KinaseProfiler service)
T20 sequence (O75116 whole entry, species assumed): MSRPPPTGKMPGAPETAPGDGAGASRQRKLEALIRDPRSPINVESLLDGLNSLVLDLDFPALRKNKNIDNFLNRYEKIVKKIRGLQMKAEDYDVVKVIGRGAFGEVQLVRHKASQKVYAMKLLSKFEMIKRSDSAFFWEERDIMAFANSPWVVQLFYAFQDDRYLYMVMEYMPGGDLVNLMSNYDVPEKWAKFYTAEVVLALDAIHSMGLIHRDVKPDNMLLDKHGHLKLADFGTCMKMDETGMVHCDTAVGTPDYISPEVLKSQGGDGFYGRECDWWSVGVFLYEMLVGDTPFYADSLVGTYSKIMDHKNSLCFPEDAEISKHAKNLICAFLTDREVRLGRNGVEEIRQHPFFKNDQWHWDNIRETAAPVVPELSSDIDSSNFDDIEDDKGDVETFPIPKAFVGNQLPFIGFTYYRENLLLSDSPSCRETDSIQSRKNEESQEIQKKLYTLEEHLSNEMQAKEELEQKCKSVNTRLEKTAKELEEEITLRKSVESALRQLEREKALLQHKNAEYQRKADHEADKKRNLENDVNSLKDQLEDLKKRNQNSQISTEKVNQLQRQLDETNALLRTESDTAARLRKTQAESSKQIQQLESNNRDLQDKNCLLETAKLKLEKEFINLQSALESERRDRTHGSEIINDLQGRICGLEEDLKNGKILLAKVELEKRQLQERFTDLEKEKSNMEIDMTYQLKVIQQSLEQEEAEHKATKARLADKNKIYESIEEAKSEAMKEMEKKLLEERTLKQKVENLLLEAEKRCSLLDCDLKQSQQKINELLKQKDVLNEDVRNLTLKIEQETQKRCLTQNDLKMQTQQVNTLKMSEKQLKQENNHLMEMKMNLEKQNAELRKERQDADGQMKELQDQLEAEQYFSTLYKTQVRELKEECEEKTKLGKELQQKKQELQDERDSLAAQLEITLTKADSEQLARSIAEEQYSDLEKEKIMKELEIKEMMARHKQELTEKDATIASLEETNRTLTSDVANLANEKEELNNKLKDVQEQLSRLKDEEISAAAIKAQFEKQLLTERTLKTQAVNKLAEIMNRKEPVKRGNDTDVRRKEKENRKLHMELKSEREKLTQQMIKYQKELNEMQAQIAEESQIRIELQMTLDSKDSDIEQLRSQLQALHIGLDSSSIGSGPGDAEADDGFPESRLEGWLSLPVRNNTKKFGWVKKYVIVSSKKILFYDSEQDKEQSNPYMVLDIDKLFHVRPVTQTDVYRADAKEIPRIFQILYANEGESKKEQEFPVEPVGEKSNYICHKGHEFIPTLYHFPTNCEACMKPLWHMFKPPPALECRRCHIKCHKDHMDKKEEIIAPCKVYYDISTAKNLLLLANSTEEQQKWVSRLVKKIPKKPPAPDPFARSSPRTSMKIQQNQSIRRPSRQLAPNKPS
Method: as §1

[28] = target: T21, cSRC (Homo sapiens, UniProt P12931); experiment: KinaseProfiler selectivity: cSRC; type: biochemical
T21 construct: purchased Millipore Co. Ltd. (KinaseProfiler service)
Method: as §1

Q: Which IC50 [1] does the source give for C[C@H]1CN(C(=O)CC#N)[C@]12CCN(c1ncnc3[nH]ccc13)C2 [JTE-052] here?
A: The IC50 was > 1000 nM.

Q: And the IC50 [2]?
A: Its IC50 is > 1000 nM.

Q: And the IC50 [3]?
A: The IC50 was > 1000 nM.

Q: And the IC50 [4]?
A: The IC50 was > 1000 nM.

Q: What about the IC50 [5] of the same compound?
A: Its IC50 is > 1000 nM.

Q: And the IC50 [6]?
A: Its IC50 is > 1000 nM.

Q: What about the IC50 [7] of the same compound?
A: Its IC50 is > 1000 nM.

Q: What about the IC50 [8] of the same compound?
A: The IC50 was > 1000 nM.

Q: And the IC50 [9]?
A: The IC50 was > 1000 nM.

Q: What about the IC50 [10] of the same compound?
A: Its IC50 is > 1000 nM.

Q: And the IC50 [11]?
A: The IC50 was > 1000 nM.

Q: And the IC50 [12]?
A: Its IC50 is 133 ± 18 nM.

Q: And the IC50 [13]?
A: The IC50 was > 1000 nM.

Q: And the IC50 [14]?
A: Its IC50 is > 1000 nM.

Q: And the IC50 at 3 days [15]?
A: The IC50 at 3 days was > 10 µM.

Q: What about the IC50 [16] of the same compound?
A: Its IC50 is > 1000 nM.

Q: What about the IC50 [17] of the same compound?
A: The IC50 was > 1000 nM.

Q: What about the IC50 [18] of the same compound?
A: The IC50 was 40 ± 9 nM.

Q: And the IC50 [19]?
A: Its IC50 is 84 ± 11 nM.

Q: What about the IC50 [20] of the same compound?
A: The IC50 was 304 ± 22 nM.

Q: And the IC50 [21]?
A: The IC50 was 18 ± 3 nM.

Q: What about the IC50 [22] of the same compound?
A: The IC50 was 33 ± 14 nM.

Q: And the IC50 [23]?
A: Its IC50 is > 1000 nM.

Q: And the IC50 [24]?
A: The IC50 was > 1000 nM.

Q: And the IC50 [25]?
A: Its IC50 is > 1000 nM.

Q: And the IC50 [26]?
A: Its IC50 is > 1000 nM.

Q: And the IC50 [27]?
A: The IC50 was 141 nM.

Q: And the IC50 [28]?
A: Its IC50 is > 1000 nM.
